This note sets out measurements from PubChem BioAssay (NCI).

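Results reflect a 48-hour exposure of cells in 96-well plates to compound at five concentrations. Definition used: TGI = concentration required for complete inhibition of growth.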

Assay in all cases: inhibition of tumour cell growth, NCI panel, 48 h
Test [1] deals with DMS 273 small cell lung.
The test system of test [2] is HOP-62 NSCLC.
Test [3] deals with SF-268 CNS.
For test [4], the system named is DMS 114 small cell lung.
Test [5] concerns MOLT-4 leukemia.
Test [6] concerns DLD-1 colon.
Test [7] relates to HCT-116 colon.
Test [8] relates to HOP-92 NSCLC.
The subject of test [9] is KM20L2 colon.
The subject of test [10] is SNB-75 CNS.
For test [11], the system named is M19-MEL melanoma.
For test [12], the system named is HOP-18 NSCLC.
The subject of test [13] is SNB-78 CNS.
In test [14] the test system is LXFL 529 NSCLC.
Test [15] deals with XF 498 CNS.
Test [16] concerns BT-549 breast.

With `O=C(c1ccco1)N(C(=S)N1CCN(c2ccccc2)CC1)C1CCCCC1`, the TGI in test [1], in test [2], in test [3], in test [4], in test [5] and in test [6] was over 100 µM in each case. The TGI in test [7], in test [8], in test [9], in test [10], in test [11] and in test [12] was over 100 µM each time. The TGI in test [13] and in [14] was over 100 µM in each case.

For `CCc1c2cc(OC)c(OC)cc2cc2c3cc(OC)c(OC)cc3cc[n+]12` (tested in a mixture with another compound), the TGI in test [15] was 33.6 µM; in [1], over 100 µM; in test [16] it was 17.4 µM; in test [2], over 95.4 µM; in test [3], 41.3 µM; in test [4], 63.1 µM. Moreover, the TGI in test [5] was over 100 µM; in test [6] it was over 100 µM; in test [7], over 53.8 µM; in [8], over 80 µM; in test [9], over 100 µM; in [10], 38.4 µM. Also, the TGI in [11] was over 92.7 µM; in test [12] it was over 100 µM; in [13], over 100 µM; in [14], over 76.3 µM.

Consider `COc1cc2c(oc(=O)c3c4occc4cc(OC)c23)c2cccc(OCc3ccccc3)c12`, for which the TGI in test [15], in [1], in test [2], in test [3], in test [4] and in [5] was over 100 µM throughout. The TGI in test [6], in test [7], in [8], in test [9], in [10] and in test [11] was over 100 µM in each case. Moreover, the TGI in [12], in [13] and in [14] was over 100 µM each time.

On to `COc1cccc2c1C1(O)C2CCCCCCCCCC12OCCCO2` (stereo not given), for which the TGI in test [1], in [16], in test [2], in test [3], in test [4] and in [5] was over 100 µM in each case. Also, the TGI is over 100 µM in test [6]; over 100 µM in test [7]; over 100 µM in test [9]; over 91.8 µM in test [10]; over 100 µM in test [12]; over 100 µM in test [13]. The compound further yielded a TGI in test [14] of over 100 µM.

`CC(C)(C)C1CCC2c3c([nH]c4ncccc34)C3C(=O)N(c4ccccc4)C(=O)C3C2C1` (stereo not given): the TGI in test [15], in test [1], in [2], in test [3], in [4] and in test [5] was over 100 µM throughout. The TGI in test [6], in test [7], in test [8], in [9], in test [10] and in [11] was over 100 µM throughout. In addition, the TGI in test [12], in test [13] and in [14] was over 100 µM in each case.

Regarding `Cc1c(O)c(OC2OC(CO)C(O)C(O)C2O)cc2c1C=C[C@@H]1[C@@]2(C)C(=O)C[C@]2(C)[C@@H]([C@@](C)(O)C(O)/C=C/C(C)(C)O)[C@H](O)C[C@@]12C` (stereo not given in full), the TGI in [16], in test [2], in test [3], in test [5], in test [7] and in test [8] was over 100 µM in each case. This compound yielded a TGI in test [10] of over 100 µM.

`O=C1C[C@H](COCc2ccccc2)NC(=O)C[C@H](COCc2ccccc2)NC(=O)C[C@H](COCc2ccccc2)N1`: the TGI was over 100 µM in test [16]; over 100 µM in test [2]; over 100 µM in [3]; over 100 µM in test [5]; over 100 µM in test [7]; 35.4 µM in [8]. This compound also showed a TGI in test [10] of 8.27 µM.

As for `O=[N+]([O-])C1=Cc2cc(Cl)ccc2OC1c1cccc2ccccc12` (stereo not given), the TGI came to 1.01 µM in test [16]; 2.55 µM in test [2]; 3.29 µM in [3]; 0.817 µM in [5]; 0.355 µM in test [7]; 3 µM in [8]. The compound also displayed a TGI in [10] of 1.95 µM.

As to `[N-]=[N+]=NC1(c2ccccc2)C(=O)C(Cl)=C(c2ccccc2)N(c2ccccc2)C1=O` (stereo not given), the TGI in [1], in [2], in test [3], in [4], in test [5] and in test [6] was over 100 µM throughout. The TGI in test [7], in test [8], in test [9], in [10], in test [11] and in test [12] was over 100 µM throughout. Also, the TGI in test [13] and in [14] was over 100 µM in each case.

`COC(=O)[C@H](Cc1ccccc1)NC(=O)N(CCC#N)CCCCN(CCC#N)C(=O)N[C@@H](Cc1ccccc1)C(=O)OC`: the TGI in [16], in test [2], in test [3], in [5], in [7] and in [8] was over 100 µM throughout. Besides, the TGI in test [10] is over 79.1 µM.

For the compound `NC(=O)CN1CC(C2=C(O)CN(CC(N)=O)C2=O)=CC1=O`, the TGI in [16], in test [2], in test [3], in test [5], in test [7] and in test [8] was over 100 µM each time. Also, the TGI in test [10] was over 100 µM.

Regarding `Cn1c(=O)c2sc3c4sc5c(=O)n(C)c6ccccc6c5c4sc3c2c2ccccc21`, the TGI in test [16], in test [2], in [3], in test [5], in test [7] and in test [8] was over 100 µM throughout. The TGI in test [10] is over 100 µM.

On to `CC(C)(C)OC(=O)N1CC(CCl)c2ccc(O)cc21` (stereo not given), for which the TGI in test [16] is 4.61 µM; in test [2], 12.9 µM; in test [3], 4.26 µM; in test [5] it was 8.13 µM; in test [7] it was 12.1 µM; in test [8] it was 6.87 µM. This compound also returned a TGI in [10] of 3.11 µM.

As for `O=C(/C=C/c1ccc(OCc2ccccc2)cc1)NCc1ccc(C(=O)NCCc2c[nH]c3ccccc23)cc1`, the TGI in [16] was over 100 µM; in test [2], 15.6 µM; in [3] it was 52.4 µM; in test [5], over 100 µM; in test [7], over 100 µM; in test [8], 61.1 µM. Also, the TGI in test [10] stood at 38.1 µM.

As for `CCOC(=O)c1nc2ccccc2nc1NCc1ccc(OC)c(OC)c1`, the TGI in test [16], in [2], in test [3], in test [5], in test [7] and in [8] was over 100 µM each time. Moreover, in test [10], the TGI is over 100 µM.

As for `C[C@@H](CC(=O)O)OC1OC(COC(=O)C(C)(C)C)C(OC(=O)C(C)(C)C)C(OC(=O)C(C)(C)C)C1OC(=O)C(C)(C)C` (stereo not given in full), the TGI was over 100 µM in [16]; over 100 µM in [2]; over 100 µM in [3]; 81.3 µM in test [5]; over 100 µM in [7]; over 100 µM in test [8]. Moreover, the TGI in test [10] is over 100 µM.

For `C=C1C(=O)O[C@H]2C1C[C@@H](O)/C(C)=C/CC[C@@]1(C)O[C@H]21` (stereo not given in full), the TGI in [16] was over 44.5 µM; in test [2], over 95.6 µM; in test [3], over 100 µM; in test [5] it was 22.3 µM; in [7] it was 23.6 µM; in test [8] it was 22.9 µM. This compound also gave a TGI in test [10] of 34.7 µM.

Consider `O=S(=O)(O)c1cc(S(=O)(=O)O)c2cc(N=Nc3c(O)ccc4ccccc34)ccc2c1`, for which the TGI in test [16], in [2], in [3], in [5], in test [7] and in test [8] was over 100 µM in each case. This compound also gave a TGI in test [10] of over 100 µM.

In the case of `CCCN(CCC)C(=S)N/N=C(/C)c1ccccc1O`, the TGI in [16] is 47.9 µM; in test [2], 52.8 µM; in test [3], over 35.6 µM; in test [5], over 36.9 µM; in [7], 18.4 µM; in test [8], over 76.8 µM. This compound had a TGI in test [10] of 35.4 µM.

In the case of `CCOc1ccccc1NC(=O)C(=O)C(/C(=N/N)C(=O)OC)c1nc2ccc([N+](=O)[O-])cc2[nH]c1=O` (stereo not given), the TGI in [16], in test [2], in test [3], in [5], in [7] and in test [8] was over 100 µM each time. This compound gave a TGI in [10] of over 100 µM.

`CCOC(=O)C(C)Sc1nnc(COc2ccc(Cl)cc2)n1-c1ccccc1` (stereo not given): the TGI is 29.9 µM in test [1]; 37.5 µM in test [2]; 34.7 µM in [3]; 35.1 µM in test [6]; 36.5 µM in [7]; 44 µM in test [8]. Also, the TGI is 33 µM in [9]; over 100 µM in test [10]; 34.9 µM in test [11]; over 100 µM in test [12]; 95.2 µM in test [13]; 30.4 µM in test [14].

Turning to `CC(=O)c1c(SCCN2CCOCC2)n(-c2ccccc2)c(=S)n(-c2ccccc2)c1=O`, the TGI is 43 µM in test [16]; over 65 µM in test [2]; 39.7 µM in test [3]; over 62.9 µM in [5]; 30.5 µM in test [7]; 30.5 µM in [8]. The TGI in test [10] was over 55.1 µM.

For `O=C1c2c(O)cc(O)cc2C(C2OC(CO)C(O)C(O)C2O)c2cc(CO)cc(O)c21` (stereo not given), the TGI in [16], in [2], in test [3], in test [5], in test [7] and in test [8] was over 100 µM each time. The TGI in test [10] worked out at 54.9 µM.

With `CN(CCNC(=O)c1c[nH]c2c1ccc1ccccc12)CCNC(=O)c1c[nH]c2c1ccc1ccccc12`, the TGI in [16] is 26.9 µM; in [2] it was 6.03 µM; in test [3], 11.6 µM; in [5], 4.3 µM; in test [7] it was 3.39 µM; in [8], 7.2 µM. The same compound displayed a TGI in [10] of 3.38 µM.

With `COC1=N[C@H](C(C)C)C(OC)=N[C@H]1Cc1ccc(C[C@@H]2N=C(OC)[C@@H](C(C)C)N=C2OC)s1`, the TGI in test [16] was over 100 µM; in [2], over 100 µM; in test [3] it was over 100 µM; in [5], 41 µM; in [7], over 100 µM; in test [8] it was over 100 µM. Moreover, the TGI in test [10] is over 100 µM.
